Data taken from publication PMC7203344, “Sirtuin 1 Inhibiting Thiocyanates (S1th)—A New Class of Isotype Selective Inhibitors of NAD^+ Dependent Lysine Deacetylases” (Frontiers in Oncology, 2020).

Assays:
human Sirt2 = molecular target: T1, human Sirt2 (Homo sapiens, UniProt Q8IXJ6); assay: Homogeneous ZMAL-based fluorescence assay, Sirt2; assay type: biochemical; settings: 4th round
T1 construct: made in house; host or cells: E. coli BL21 Star (DE3)
T1 sequence (Q8IXJ6 56-356): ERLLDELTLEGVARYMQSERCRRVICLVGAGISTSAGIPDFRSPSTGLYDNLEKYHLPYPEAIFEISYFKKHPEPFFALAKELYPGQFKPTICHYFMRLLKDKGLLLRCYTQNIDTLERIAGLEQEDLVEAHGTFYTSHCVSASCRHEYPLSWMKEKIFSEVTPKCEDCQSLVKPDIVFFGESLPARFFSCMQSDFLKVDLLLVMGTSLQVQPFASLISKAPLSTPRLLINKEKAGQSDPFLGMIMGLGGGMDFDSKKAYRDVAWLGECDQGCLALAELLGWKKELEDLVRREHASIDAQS
Procedure: Recombinant human Sirt5_37−310 was purchased readily in Tris Buffer [25 mM Tris, 100 mM NaCl, 5 mM DTT, 10% glycerol (v/v)] from Enzo Life Sciences (NY, USA). Human Sirt3_118−395 was expressed and purified as described previously ([54]). For expression of human Sirt1_134−747 and Sirt2_56−356 chemically competent cells of E. coli BL21 Star (DE3) were transformed with the expression vectors pET30S-hSirt1_134−747 or pET30S-hSirt2_56−356. Bacteria were grown at 37°C in 2×YT medium supplemented with 50 μg·mL^−1 of kanamycin to an OD600 of 0.6. Then isopropyl-β-D-1-thiogalactopyranoside (IPTG) was added to a final concentration of 1 mM to induce gene expression. After further cultivation at 20°C for 12 h, the cells were harvested by centrifugation for 15 min at 5,000 g. The cells were resuspended in lysis buffer [100 mM Tris/HCl buffer at pH 8.0, 150 mM NaCl and 10% (v/v) glycerol] and disrupted by ultrasonication (Branson Digital Sonifier 250) at 70% amplitude for 10 min (3 s working, 10 s pause). The crude extract was cleared by centrifugation at 100,000 g for 1 h, and the supernatant was loaded onto a Strep-Tactin Superflow cartridge (5 ml bed volume, IBA Lifescience, Germany). Target proteins were eluted with lysis buffer containing 5 mM D-Desthiobiotin (IBA Lifescience, Germany) and further separated by size-exclusion chromatography (Superdex S200 26/60, GE Healthcare, IL, USA) equilibrated in Tris/HCl buffer (20 mM, 150 mM NaCl, pH 8.0). Pure protein was concentrated by ultrafiltration, flash-frozen in liquid nitrogen and stored at −80°C until further use. Identity as well as purity were verified by SDS-PAGE ([55]) and protein concentration was determined by the bicinchoninic acid (BCA) method, using bovine serum albumin (BSA) as a standard ([56]). Deacetylase activity was confirmed to be NAD^+-dependent and could be inhibited with the physiological sirtuin inhibitor nicotinamide.
All compounds were tested in the trypsin-coupled high-throughput ZMAL-assay in black 96-well plates (OptiPlateTM−96F, black, 96 well, Pinch bar design, PerkinElmer, USA), using ZMAL (Z-Lys(acetyl)-AMC) as a substrate ([57]). Sirt1_134−747, Sirt2_56−356, and Sirt3_118−395 were mixed with 5 μL substrate (10.5 μM final assay concentration, diluted from a […] stock in DMSO) and 3 μL Inhibitor in DMSO at various concentrations or DMSO as a control [final DMSO concentration 5% (v/v)]. The mixture was supplemented with assay buffer (50 mM Tris/HCl, 137 mM NaCl, 2.7 mM KCl, 1 mM MgCL2, pH 8.0) to a total volume of 55 μL. Enzyme concentration was adjusted to get a final conversion of 20–30%. Addition of 5 μL NAD^+ (6 mM in assay buffer, final assay concentration of 500 μM) initiated the catalytic reaction and the plates were incubated at 37°C for 4 h with agitation at 140 rpm. The catalytic reaction was stopped by addition of 60 μL stop solution [50 mM Tris, 100 mM NaCl, 6.7% (V/V) DMSO, 5.5 U/μL trypsin, 8 μM nicotinamide, pH 8.0]. The plate was again incubated at 37°C and 140 rpm for 20 min to release free AMC from the deacetylated substrate by trypsin digestion. Afterwards, fluorescence intensity was measured in a microplate reader (λEx = 390 nm, λEm = 460 nm, BMG POLARstar Optima, BMG Labtech, Germany). An enzyme-free blank control and a 100% conversion control containing AMC instead of ZMAL were measured in addition. Inhibition was calculated in % in relation to a DMSO control after blank signal subtraction and IC50 values were determined using a non-linear regression to fit the dose-response curve with OriginPro 9G (OriginLab, USA). Pre-tests as well as IC50 determination was carried out at least twice in duplicates.

[1] = tested on: γH2AX/H2AX levels in MEF cells; assay: γH2AX level determination by western blot; assay type: cell-based, mouse; settings: 48 h, EX-527 10 μM, S1th 10 30 μM, S1th 12 20 μM, S1th 13 12 μM, SirReal2 30 μM
Procedure: Sirt1 WT and KO MEFS cells were treated with 10 μM EX-527, 12 μM S1th 13 (6), 20 μM S1th 12 (5), 30 μM S1th 10 (7) and 30 μM SirReal2 [Sirt2 inhibitor, synthesized according to ([62])] for 48 h. Oxidative stress was induced using 10 μM Camptothecin 2 h. Whole-cell extracts were performed according to the Dignam protocol ([63]). Primary antibodies used for the western blot were anti-H2AX and anti-γH2AX (ab11175 and ab2893 resp., Abcam, UK). Densiometric analysis of the western blots was performed with Quantity One software (Bio-Rad Laboratories, Inc., USA).

| SMILES | inhibition at 50 µM (human Sirt2) [%] | γH2AX/H2AX levels without Camptothecin [1] |
| --- | --- | --- |
| N#CSc1cc(SC#N)c(N)nc1N [PR-619, reference compound] | 36 |  |
| N#CSc1cccc(NC(=O)[C@H]2CC=CC[C@H]2C(=O)O)c1 [S1th 10] | < 10 | decreased |
| CCCCNC(=O)Nc1cccc(SC#N)c1 [S1th 11] | < 10 |  |
| COc1ccc(SC#N)cc1OCC(=O)N(CCC#N)CCC#N [S1th 12] | < 10 | decreased |
| N#CSc1cccc(NS(=O)(=O)c2ccc3c(c2)OCCO3)c1 [S1th 13] | < 10 | decreased |
